In patent US20100087658A1, “METHODS AND INTERMEDIATES FOR SYNTHESIS OF SELECTIVE DPP-IV INHIBITORS” (Phenomix Corporation, priority 1996, published 2010):

Conditions: crystalline form as isolated

With `O=C([O-])CN(C(=O)OCc1ccccc1)C1CCN(C(=O)OCc2ccccc2)C1.[Na+]` (stereo not shown) [II-Cbz-Na, sodium salt of (1-carbobenzyloxypyrrolidin-3-yl)-N-carbobenzyloxyglycine] the water solubility was “highly water-soluble”.
